According to patent US4749790A, “Process for preparing H2 receptor antagonist ascorbate compounds” (priority 1985, dated 1988):
In brackets after ≈: the same amount, converted by molar mass. Like-named read-outs stand apart in the source and are kept apart here.

Tests used:
[1] = test system: rats; details: eight days treatment, 500 mg/kg; cited from earlier work
[2] = 70° C.; 20 min (10% hydrochloric acid), 180 min (ascorbic acid); cited from earlier work
[3] = wide pH range; cited from earlier work
[4] = test system: desoxyribonucleic acid (DNA); details: cimetidine 250 mg/kg with nitrite 80 mg/kg; cited from earlier work
[5] = test system: gastric carcinoma; details: in vivo; cited from earlier work
[6] = Nitrosation in gastric juice or simulated gastric juice (Griess reagent, TLC); details: for NC (nitrosocimetidine) found: 75 ml simulated gastric juice, 37° C., pH 1.0-3.5, ascorbate-nitrite 6:1 molar ratio
[7] = Solubility in water
[8] = Stability to ambient environment (air, light, oxidation)
[9] = pH of aqueous solution; assay type: physicochemical
[10] = test system: duodenal ulcer

**Q.** For `Cc1[nH]cnc1CSCCN=C(NC#N)N(C)N=O` [NC, nitrosocimetidine], which toxic effect [1] is on record?
**A.** no toxic effect

**Q.** With `O=C1O[C@H]([C@@H](O)CO)C(O)=C1O` [ascorbic acid, 3-oxo-L-gulofuranelactone (enolic form)] as the compound, how does the denitrosation [2] read?
**A.** innefective

**Q.** And the “inhibition of N-nitroso compound formation” value [3]?
**A.** most effective over a wide pH range

**Q.** Which “evidence of DNA damage” value [4] does the source give for `CN/C(=N/CCSCc1nc[nH]c1C)NC#N` [cimetidine, N"-cyano-N'-methyl-N-2-(5-methyl-1H-imidazol-4-yl)methylthioethylguanidine] here?
**A.** no evidence of desoxyribonucleic acid (DNA) damage

**Q.** And the “gastric carcinoma related with treatment” value [5]?
**A.** appearance of a gastric carcinoma

**Q.** What about the “NCD (nitroso compound derivatives) determined” value ([6]; 400 mg cimetidine, 36.4 mg sodium nitrite, 75 ml gastric juice, pH 1.5, 37° C., 60 min) of the same compound?
**A.** 100 ppm

**Q.** For `Cc1ccc(Cc2c[nH]c(NCCSCc3ccc(CN(C)C)o3)nc2=O)cn1` [Example 15, CM.10 antagonist L-ascorbate], which “water solubility (in words)” value [7] is on record?
**A.** water soluble

**Q.** With `Cl` [hydrochloric acid] as the compound, how does the denitrosation [2] read?
**A.** innefective

**Q.** Which “TLC spot of nitroso derivative at Rf = 0.83” value ([6]; gastric juice pH 1.5, 318 mg diascorbate, 18.2 mg sodium nitrite, 60 min) does the source give for `CNC(=C[N+](=O)[O-])NCCSCc1ccc(CN(C)C)o1` [Example 18, Ranitidine diascorbate] here?
**A.** did not appear

**Q.** Which results are given for `CN/C(=N/CCSCc1nc[nH]c1C)NC#N` [Example 16, Cimetidine diascorbate]?
**A.** stability to air, light, ambient conditions [8]: has to be preserved from the air and light; NC (nitrosocimetidine) found [6]: 0.13 ppm; NC produced in cases of hyperchlorhydria ([6]; abnormally high nitrite concentrations): 0.08 ppm

**Q.** Which “formation of nitroso compounds / nitrosatability” value ([6]; gastric juice conditions) does the source give for `CNC(=C[N+](=O)[O-])NCCSCc1ccc(CN(C)C)o1` [ranitidine, N-(2-(((5-((dimethylamino)methyl)-2-furanyl)methyl)thio)ethyl)N'-methyl-2-nitro-1,1-ethenediamine, reference compound] here?
**A.** causes the formation of nitroso derivatives and nitrosated degradation products

**Q.** For `CNC(=C[N+](=O)[O-])NCCSCc1ccc(CN(C)C)o1` [Example 8, Ranitidine L-ascorbate], which “pH of aqueous solution” value [9] is on record?
**A.** 3.5

**Q.** For `Nc1n[s+]([O-])nc1NCCCOc1cccc(CN2CCCCC2)c1` [Example 14, CM.5 antagonist L-ascorbate], which “water solubility (in words)” value [7] is on record?
**A.** water soluble

**Q.** What about the “stability to air, light, ambient conditions” value [8] of the same compound?
**A.** has to be preserved from the air and light

**Q.** What does the source list for `NC(N)=Nc1nc(CSCCC(N)=NS(N)(=O)=O)cs1` [Example 12, Famotidine L-ascorbate]?
**A.** pH of aqueous solution [9]: 5.9; pH of aqueous solution ([9]; listed as famotidine ascorbate): 5.6; solubility ([7]; water, Solubility in water, room temperature where printed): 75 mg/mL (≈ 222 mM); stability to air, light, ambient conditions [8]: has to be preserved from the air and light

**Q.** For `CNC(=NC#N)NCCSCc1nc[nH]c1C` [Example 1, Cimetidine L-ascorbate], which “pH of aqueous solution” value [9] is on record?
**A.** 4.5

**Q.** And the “outcome of relapse and improvement maintenance cases” value ([10]; maintenance doses 680 mg ascorbate or 860 mg diascorbate, one year continuously, two years with breaks)?
**A.** normality being achieved

**Q.** What about the “outcome in males with duodenal ulcer diagnosis” value ([10]; males aged 55-60 years, usual periods of cimetidine medication) of the same compound?
**A.** back to normal

**Q.** And the “water solubility (in words)” value [7]?
**A.** soluble in water

**Q.** What about the “NC (nitrosocimetidine) found” value ([6]; listed as cimetidine ascorbate) of the same compound?
**A.** 0.18 ppm
